Experimental data taken from patent US20250179033A1 (priority 2021, published 2025).
Where two headings read alike, the source gives them in different places.

Legend:
[1] = tested on: primary mouse neuron cultures; experiment: Calcium imaging in primary neurons; type: cell-based; conditions: 1 μM
Method: The direct effects of the antiretroviral compounds were tested on primary rat and mouse neurons cultured on coverslips. Neurons at 14-18 days in vitro were loaded with the calcium indicator, Fluo-4 AM (2 μM, Molecular Probes, Inc., Eugene, Oregon, United States of America) in aCSF (aCSF: NaCl […], KCl 5.0 mM, CaCl2 2.3 mM, MgCl2 1.3 mM, glucose 20 mM). After 30 minutes of dye loading, the coverslip was transferred to a specialized stage for imaging. Cells were maintained in aCSF and time-lapse digital images were automatically captured on an Olympus IX71 microscope using software sold under the tradename METAMORPH® (Molecular Devices, San Jose, California, United States of America). Images were captured with a 40 msec exposure every 6 seconds for 6 minutes to assess acute effects and every minute for 60 minutes to assess delayed effects. Three pre-stimulation measurements were taken to establish basal levels of fluorescence at the beginning of each experiment. After collection of the third image, neurons the antiretroviral compound or vehicle diluted from the stock vial into aCSF was added to the neurons at the indicated final concentration. Baseline fluorescence was subtracted to correct for cell-to-cell differences in dye loading and intrinsic fluorescence. Changes in fluorescence at each time point were averaged across all cells from at least triplicate runs to provide an indication of the “typical” response. In some cases, individual cell response patterns are shown where the average masked important cell-specific profiles. All compounds were tested at 1 μM.

[2] = Toxicity assay in TZM-bl cells; type: cell-based; conditions: human
Method: (§1) Compounds were serially diluted starting with 10 mM stocks in DMSO. DMSO concentrations were kept the same for all dilutions used within an assay (either 0.005% or 0.05% depending on highest concentration used). Duplicate 96-well plates were set up with 25 μL compound dilution, 25 μL virus, and 50 μL TZM-bl cells (2×10^5/mL) with DEAE-dextran and incubated at 37° C. 5% CO2 for 48 hr. All compounds were tested in triplicate, with single wells of efavirenz dilutions on each plate. All plates had 3-5 control wells without compound, 1 control well with no cells, and 1 control well with a highly toxic level of DMSO (9%). Inhibition assays were set up in clear tissue-culture treated plates with lysates moved to black assay plates or were set up in black tissue culture-treated plates. Medium was removed and the cells were lysed with Glo Lysis Buffer (Promega, Madison, Wisconsin, United States of America). Luciferase Assay System reagent (Promega, Madison, Wisconsin, United States of America) was added to cells and relative light units (RLU) was measured using an EnSpire instrument (PerkinElmer, Waltham, Massachusetts, United States of America). Toxicity assays were set up in clear tissue culture-treated plates. CellTiter-Blue Cell Viability Assay reagent (Promega) was added to the wells after 46 hr incubation, followed by 2 hr incubation. Sodium lauryl sulfate was added to 1.5% to stop the reaction and the plates were measured for fluorescence (560 nmEx/590 nmEm) using an EnSpire instrument (PerkinElmer, Waltham, Massachusetts, United States of America).

HIV-1 IIIB (wild-type) = experiment: HIV inhibition assay in TZM-bl cells, wild-type; type: cell-based; conditions: Human immunodeficiency virus 1, IIIB; for IC50: Table 4, TZM-bl, read-out: IC50 (TZM, WT)
Method: (§2) Cells and virus culture: TZM-bl cells (42), HIV-1 IIIB virus (43-45) and HIV-1 IIIB (A17 variant) virus (46) as well are the NNRTI resistant mutants (strain NL4-3) (47) were obtained from the NIH HIV Reagent Program. H9 [derivative of HuT 78]cells (ATCC® HTB176™) were obtained from the American Type Culture Collection (Manassas, Virginia, United States of America). These viruses were grown in H9 cells to high titer, which was tested using a HIV p24 (high sensitivity) The detection kit used was sold under the tradename ALPHALISA® Detection Kit (PerkinElmer, Waltham, Massachusetts, United States of America). The viruses were concentrated using Lenti-X Concentrator (Takara Bio USA, Inc., Mountain View, California, United States of America). Infections of TZM-bl cells with either virus was facilitated with 15 μg/mL DEAE-dextran.
as §1

[3] = tested on: HIV-1 IIIB A17 variant (Y181C/K103N); experiment: HIV inhibition assay in TZM-bl cells, A17 variant; type: cell-based; conditions: Human immunodeficiency virus 1, IIIB, TZM-bl; for IC50: read-out: IC50 (TZM, A17), Table 4, TZM-bl
Method: as §2, §1

[4] = target: T1, HIV I reverse transcriptase (Human immunodeficiency virus type 1 group M subtype B, UniProt P03366); experiment: Reverse transcriptase inhibition assay (Roche kit, ELISA); type: biochemical
T1 construct: purchased Roche
Method: NNRTI assay methods: Inhibition of HIV I reverse transcriptase was assessed via a kit from Roche (Indianapolis-Marion County, Indiana, United States of America) using the manufacture's protocol (500 μM final reverse transcriptase reaction amount). […] DMSO concentrations were kept the same for all dilutions used within an assay (0.05%). Final compound concentrations ranged from 5000 nM-0.05 nM with 2-fold serial dilutions. 96-well plates were set up with 20 μL compound dilution, 20 μL reverse transcriptase, and 20 μL template/nucleotides and incubated at 37° C. 5% CO2 for 1 hr in a reaction plate. 50 μL of each reaction was then transferred to a streptavidin conjugated 96-well plate and an ELISA assay was run based on manufacture's protocol. All compounds were tested in sextuplicate, with single wells of efavirenz dilutions on each plate.

SMILES | acute spike frequency / acute signaling [1] | delayed spike frequency [1] | total calcium accumulation [1] | toxic effects by calcium imaging, overall [1] | CC50 at 48 h ([2]; TZM-bl cells, Table 4, TZM-bl, read-out: CC50 (TZM)) [nM] | IC50 (HIV-1 IIIB (wild-type)) [nM] | IC50 [3] [nM] | EC50 [4] [nM] | IC50 [4] [nM] | CC50 at 48 h [2] [nM] | EC50 (HIV-1 IIIB (wild-type); text b494, FIG. 2F, read-out: antiviral activity against wildtype, EC50) [nM] | EC50 ([3]; read-out: activity against the A17 double mutant (Y181C/K103N), EC50) [nM]
O=C1Nc2ccc(Cl)cc2[C@@](C#CC2CC2)(C(F)(F)F)O1 [Efavirenz, efavirenz] | trend towards a reduced acute signaling | increase | most dramatic increase | seemed to have some toxic effects | > 100000 | 0.658 | 17 | – | – | – | – | –
Cc1cc(/C=C/C#N)cc(C)c1Nc1ccnc(Nc2ccc(C#N)cc2)n1 [Rilpivirine, rilpivirine, reference compound] | decrease | – | – | – | – | 0.351 | 0.817 | 376 | 1180 | 112000 | 0.35 | 1.58
